Experimental data taken from patent US20240417405A1, “Substituted Spiro Derivatives” (Janssen Pharmaceutica NV, priority 2021, published 2024).

What was measured:
MOLM14 cells = experiment: Proliferation assay, spheroid-like growth, MOLM14 (MLL-AF9 rearranged); format: cell-based, human; details: Homo sapiens, MOLM-14, 192 h, 8 days, confluence as measure of spheroid size, read-out: spheroid assay_OneTime MOLM14 IC50
Description: The anti-proliferative effect of menin/MLL protein/protein interaction inhibitor test compounds was assessed in human leukemia cell lines. The cell line MOLM14 harbors a MLL translocation and expresses the MLL fusion proteins MLL-AF9, respectively, as well as the wildtype protein from the second allele. […] KO-52 was used as a control cell line containing two MLL (KMT2A) wildtype alleles in order to exclude compounds that display general cytotoxic effects.
MOLM14 cells were cultured in RPMI-1640 (Sigma Aldrich) supplemented with 10% heat-inactivated fetal bovine serum (HyClone), 2 mM L-glutamine (Sigma Aldrich) and 50 μg/ml gentamycin (Gibco). KO-52 cell lines were propagated in alpha-MEM (Sigma Aldrich) supplemented with 20% heat-inactivated fetal bovine serum (HyClone), 2 mM L-glutamine (Sigma Aldrich) and 50 μg/ml gentamycin (Gibco).
In order to assess the anti-proliferative effects, 200 MOLM14 cells, or 300 KO-52 cells were seeded in 200 μl media per well in 96-well round bottom, ultra-low attachment plates (Costar, catalogue number 7007). Cell seeding numbers were chosen based on growth curves to ensure linear growth throughout the experiment. Test compounds were added at different concentrations and the DMSO content was normalized to 0.3%. Cells were incubated for 8 days at 37° C. and 5% CO2. Spheroid like growth was measured in real-time by live-cell imaging (IncuCyteZOOM, Essenbio, 4× objective) acquiring images at day 8. Confluence (%) as a measure of spheroid size was determined using an integrated analysis tool.
In order to determine the effect of the test compounds over time, the confluence in each well as a measure of spheroid size, was calculated. Confluence of the highest dose of a reference compound was used as baseline for the LC (Low control) and the confluence of DMSO treated cells was used as 0% cytotoxicity (High Control, HC).
Absolute IC50 values were calculated as percent change in confluence as follows:
LC=Low Control: cells treated with e.g. 1 μM of the cytotoxic agent staurosporin, or e.g. cells treated with a high concentration of an alternative reference compound
GraphPad Prism (version 7.00) was used to calculate the IC50. Dose-response equation was used for the plot of % Effect vs Log 10 compound concentration with a variable slope and fixing the maximum to 100% and the minimum to 0%.

[1] = target: T1, menin/MLL (terbium chelate-labeled menin, FITC-MBM1 peptide) (Homo sapiens, UniProt O00255, T541A); experiment: Menin/MLL homogenous time-resolved fluorescence (HTRF) assay; format: binding; details: 30 min incubation
T1 construct: Menin (a.a 1-610-6xhis tag)
T1 sequence (O00255 with tags, fused parts or gaps T541A): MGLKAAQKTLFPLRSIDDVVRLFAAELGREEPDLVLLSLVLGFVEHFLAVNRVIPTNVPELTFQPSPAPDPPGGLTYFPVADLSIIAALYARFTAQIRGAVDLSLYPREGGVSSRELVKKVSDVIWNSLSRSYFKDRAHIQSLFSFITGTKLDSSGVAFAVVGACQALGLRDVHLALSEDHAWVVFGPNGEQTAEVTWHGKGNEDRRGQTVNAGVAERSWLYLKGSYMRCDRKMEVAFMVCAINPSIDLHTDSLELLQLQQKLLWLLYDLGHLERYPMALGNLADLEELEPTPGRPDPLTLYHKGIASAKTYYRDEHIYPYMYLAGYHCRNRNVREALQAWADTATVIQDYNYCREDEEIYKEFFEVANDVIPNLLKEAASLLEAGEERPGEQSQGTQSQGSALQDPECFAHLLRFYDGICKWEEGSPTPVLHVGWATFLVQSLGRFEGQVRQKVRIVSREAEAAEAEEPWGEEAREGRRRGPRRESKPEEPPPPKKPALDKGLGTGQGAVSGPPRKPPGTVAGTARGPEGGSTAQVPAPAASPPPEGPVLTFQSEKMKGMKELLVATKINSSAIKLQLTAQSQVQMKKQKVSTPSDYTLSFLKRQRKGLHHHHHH
Description: 1) Menin/MLL Homogenous Time-Resolved Fluorescence (HTRF) Assay
To an untreated, white 384-well microtiter plate was added 40 nL 200× test compound in DMSO and 4 μL 2× terbium chelate-labeled menin (vide infra for preparation) in assay buffer (40 mM Tris.HCl, pH 7.5, 50 mM NaCl, 1 mM DTT (dithiothreitol) and 0.05% Pluronic F-127). After incubation of test compound and terbium chelate-labeled menin for 30 min at ambient temperature, 4 μL 2× FITC-MBM1 peptide (FITC-β-alanine-SARWRFPARPGT-NH2 (SEQ ID NO: 3)) (“FITC” means fluorescein isothiocyanate) in assay buffer was added, the microtiter plate centrifuged at 1000 rpm for 1 min and the assay mixtures incubated for 15 min at ambient temperature. The relative amount of menin FITC-MBM1 complex present in an assay mixture is determined by measuring the homogenous time-resolved fluorescence (HTRF) of the terbium/FITC donor/acceptor fluorophore pair using an EnVision microplate reader (ex. 337 nm/terbium em. 490 nm/FITC em. 520 nm) at ambient temperature. The degree of fluorescence resonance energy transfer (the HTRF value) is expressed as the ratio of the fluorescence emission intensities of the FITC and terbium fluorophores (F^em 520 nm/F^em 490 nm). The final concentrations of reagents in the binding assay are 200 pM terbium chelate-labeled menin, 75 nM FITC-MBM1 peptide and 0.5% DMSO in assay buffer. Dose-response titrations of test compounds are conducted using an 11 point, four-fold serial dilution scheme, starting typically at 10 μM.
Compound potencies were determined by first calculating % inhibition at each compound concentration according to equation 1:
% inhibition=((HC−LC)−(HTRF^compound−LC))/(HC−LC))*100 (Eqn 1)
Where LC and HC are the HTRF values of the assay in the presence or absence of a saturating concentration of a compound that competes with FITC-MBM1 for binding to menin, and HTRF^compound is the measured HTRF value in the presence of the test compound. HC and LC HTRF values represent an average of at least 10 replicates per plate.
% inhibition=Bottom+(Top−Bottom)/(1+10^((logIC50−log[cmpd])*h)) (Eqn 2)
Where Bottom and Top are the lower and upper asymptotes of the dose-response curve, respectively, IC50 is the concentration of compound that yields 50% inhibition of signal and h is the Hill coefficient. IC50 values below 0.1 nM in the HTRF assay were reported as 0.1 nM in the Table below (detection limit).
Preparation of Terbium cryptate labeling of Menin: Menin (a.a 1-610-6xhis tag (“6xhis tag” disclosed as SEQ ID NO: 2), 2.3 mg/mL in 20 mM Hepes (2-[4-(2-Hydroxyethyl)-1-piperazinyl]ethane sulfonic acid), 80 mM NaCl, 5 mM DTT (Dithiothreitol), pH 7.5) was labeled with terbium cryptate as follows. 200 μg of Menin was buffer exchanged into 1× Hepes buffer. 6.67 μM Menin was incubated with 8-fold molar excess NHS (N-hydroxysuccinimide)-terbium cryptate for 40 minutes at room temperature. Half of the labeled protein was purified away from free label by running the reaction over a NAP5 column with elution buffer (0.1 M Hepes, pH 7+0.1% BSA (bovine serum albumin)). The other half was eluted with 0.1 M phosphate buffered saline (PBS), pH7. 400 μl of eluent was collected for each, aliquoted and frozen at −80° C. The final concentration of terbium-labeled Menin protein was 115 μg/mL in Hepes buffer and 85 μg/mL in PBS buffer, respectively.

IC50 (MOLM14 cells) [nM] | IC50 [1] [nM] | Compound
23 | 0.2 | CC(=O)N1CCCN([C@H]2C[C@@H]([C@@H](C(C)C)N3CC4(CCN(c5ncnnc5Oc5ccc(F)cc5-c5cncnc5C5CC5)C4)C3)C2)CC1 (single isomer, unassigned) [Compound 61]
8 | 0.2 | CC(C)[C@H]([C@H]1C[C@@H](N2CCC3(CCO3)C2)C1)N1CC2(CCN(c3ncnnc3Oc3ccc(F)cc3-c3cncnc3C3CC3)C2)C1 (single isomer, unassigned) [Compound 212]
3 | 0.5 | CC(C)[C@H]([C@H]1C[C@@H](NC2CS(=O)(=O)C2)C1)N1CC2(CCN(c3ncnnc3Oc3ccc(F)cc3-c3cncnc3C3CC3)C2)C1 (single isomer, unassigned) [Compound 235]
270 | 1.9 | CC(C)[C@H]([C@H]1C[C@@H](N2CCNC(=O)C2)C1)N1CC2(CCN(c3ncnnc3Oc3ccc(F)cc3-c3cncnc3C3CC3)C2)C1 (single isomer, unassigned) [Compound 240]
510 | 2.1 | CC(C)[C@H]([C@H]1C[C@H](N2CCNC(=O)C2)C1)N1CC2(CCN(c3ncnnc3Oc3ccc(F)cc3-c3cncnc3C3CC3)C2)C1 (single isomer, unassigned) [Compound 241]
130 | 1.6 | CC(C)[C@@H]([C@H]1C[C@@H](N2C[C@H]3COC[C@H]3C2)C1)N1CC2(CCN(c3ncnnc3Oc3ccc(F)cc3-c3cncnc3C3CC3)C2)C1 (single isomer, unassigned) [Compound 244]
180 | 0.3 | CC(C)[C@H]([C@H]1C[C@@H](N2CC3(CCCO3)C2)C1)N1CC2(CCN(c3ncnnc3Oc3ccc(F)cc3-c3cncnc3C3CC3)C2)C1 (single isomer, unassigned) [Compound 246]
9 | 0.1 | CC(C)[C@H]([C@H]1C[C@@H](N2CC3(CCOC3)C2)C1)N1CC2(CCN(c3ncnnc3Oc3ccc(F)cc3-c3cncnc3C3CC3)C2)C1 (single isomer, unassigned) [Compound 247]
9 | 0.1 | CC(C)[C@H]([C@H]1C[C@@H](N2CC3(CCS(=O)(=O)CC3)C2)C1)N1CC2(CCN(c3ncnnc3Oc3ccc(F)cc3-c3cncnc3C3CC3)C2)C1 (single isomer, unassigned) [Compound 249]
9 | 0.2 | COC1(C)CN([C@H]2C[C@@H]([C@H](C(C)C)N3CC4(CCN(c5ncnnc5Oc5ccc(F)cc5-c5nnccc5C5CC5)C4)C3)C2)C1 (single isomer, unassigned) [Compound 263]
11 | 0.1 | CC(C)[C@@H]([C@H]1C[C@@H](N2CC3(CCCO3)C2)C1)N1CC2(CCN(c3ncnnc3Oc3ccc(F)cc3-c3nnccc3C3CC3)C2)C1 (single isomer, unassigned) [Compound 265]
< 2 | 0.1 | CC(C)[C@@H]([C@H]1C[C@@H](N2CC3(CCCCO3)C2)C1)N1CC2(CCN(c3ncnnc3Oc3ccc(F)cc3-c3nnccc3C3CC3)C2)C1 (single isomer, unassigned) [Compound 266]
180 | 1.3 | CC(C)[C@H]([C@H]1C[C@@H](N2CC3(CCCCO3)C2)C1)N1CC2(CCN(c3ncnnc3Oc3ccc(F)cc3-c3nnccc3C3CC3)C2)C1 (single isomer, unassigned) [Compound 267]
6 | 0.1 | CC(C)[C@@H]([C@H]1C[C@@H](N2CCC3(CCO3)C2)C1)N1CC2(CCN(c3ncnnc3Oc3ccc(F)cc3-c3nnccc3C3CC3)C2)C1 (single isomer, unassigned) [Compound 268]
> 940 | 5.6 | CC(C)[C@H]([C@H]1C[C@@H](N2CCC3(CCO3)C2)C1)N1CC2(CCN(c3ncnnc3Oc3ccc(F)cc3-c3nnccc3C3CC3)C2)C1 (single isomer, unassigned) [Compound 269]
2 | 0.2 | CC(C)[C@@H]([C@H]1C[C@@H](N2CCC3(CCCO3)C2)C1)N1CC2(CCN(c3ncnnc3Oc3ccc(F)cc3-c3nnccc3C3CC3)C2)C1 (single isomer, unassigned) [Compound 270]
21 | 0.1 | CC(C)[C@@H]([C@H]1C[C@@H](NC2CC2)C1)N1CC2(CCN(c3ncnnc3Oc3ccc(F)cc3-c3nnccc3C3CC3)C2)C1 (single isomer, unassigned) [Compound 272]
250 | 0.9 | CC(=O)N1CCN([C@H]2C[C@@H]([C@H](C(C)C)N3CC4(CCN(c5ncnnc5Oc5ccc(F)cc5-c5nnccc5C5CC5)C4)C3)C2)CC1 (single isomer, unassigned) [Compound 277]
2 | 0.1 | CC(C)[C@@H]([C@H]1C[C@@H](N2C[C@H]3COC[C@H]3C2)C1)N1CC2(CCN(c3ncnnc3Oc3ccc(F)cc3-c3cnncc3C3CC3)C2)C1 (single isomer, unassigned) [Compound 278]
